Converted amounts (≈) assume the structure as drawn. Where two headings read alike, the source gives them in different places. Blank lines part the entries; values can stand above or below the compound they belong to.
Key:
St. pneumoniae SL199T = experiment: MIC, standard microdilution; format: cell-based, Streptococcus pneumoniae
Excerpt: (§1) The antibacterial activities of the compounds have been determined by standard microdilution technique (National Committee for Clinical Laboratory Standards. 1997. Methods for dilution antimicrobial susceptibility tests for bacteria that grow aerobically, 4th edition. Approved standard M7-A4. National Committee for Clinical Laboratory Standards, Wayne, Pa.).

St. pneumoniae 1/4 = experiment: MIC, standard microdilution; format: cell-based, Streptococcus pneumoniae
Excerpt: as §1

St. pneumoniae 1/1 = experiment: MIC, standard microdilution; format: cell-based, Streptococcus pneumoniae
Excerpt: as §1

St. pneumoniae 12288 = experiment: MIC, standard microdilution; format: cell-based, Streptococcus pneumoniae
Excerpt: as §1

E. coli ATCC25922 = experiment: MIC, standard microdilution; format: cell-based
Excerpt: as §1

[1] = tested on: P. aeruginosa ATCC27853 (+Ery. 32 μg/ml); experiment: MIC, standard microdilution; format: cell-based
Excerpt: as §1

S. aureus 1086 = experiment: MIC, standard microdilution; format: cell-based, Staphylococcus aureus
Excerpt: as §1

S. aureus ATCC29213 = experiment: MIC, standard microdilution; format: cell-based, Staphylococcus aureus
Excerpt: as §1

S. aureus 745 = experiment: MIC, standard microdilution; format: cell-based, Staphylococcus aureus
Excerpt: as §1

H. influenzae QK 12/87 = experiment: MIC, agar dilution, HTM medium; format: cell-based, Haemophilus influenzae
Excerpt: as §1, with “biological” for “antibacterial”, “of compounds of” for “of”, “present invention against Haemophilus influenzae” for “compounds”, “agar dilution method using HTM medium” for “microdilution technique”

H. influenzae 3201 = experiment: MIC, agar dilution, HTM medium; format: cell-based, Haemophilus influenzae
Excerpt: as §1, with “biological” for “antibacterial”, “of compounds of” for “of”, “present invention against Haemophilus influenzae” for “compounds”, “agar dilution method using HTM medium” for “microdilution technique”

H. influenzae ATCC 9334 = experiment: MIC, agar dilution, HTM medium; format: cell-based, Haemophilus influenzae
Excerpt: as §1, with “biological” for “antibacterial”, “of compounds of” for “of”, “present invention against Haemophilus influenzae” for “compounds”, “agar dilution method using HTM medium” for “microdilution technique”

H. influenzae H13 LAH = experiment: MIC, agar dilution, HTM medium; format: cell-based, Haemophilus influenzae
Excerpt: as §1, with “biological” for “antibacterial”, “of compounds of” for “of”, “present invention against Haemophilus influenzae” for “compounds”, “agar dilution method using HTM medium” for “microdilution technique”

H. influenzae ATCC 49247 = experiment: MIC, agar dilution, HTM medium; format: cell-based, Haemophilus influenzae
Excerpt: as §1, with “biological” for “antibacterial”, “of compounds of” for “of”, “present invention against Haemophilus influenzae” for “compounds”, “agar dilution method using HTM medium” for “microdilution technique”

H. influenzae 3457 = experiment: MIC, agar dilution, HTM medium; format: cell-based, Haemophilus influenzae
Excerpt: as §1, with “biological” for “antibacterial”, “of compounds of” for “of”, “present invention against Haemophilus influenzae” for “compounds”, “agar dilution method using HTM medium” for “microdilution technique”

H. influenzae 2947 = experiment: MIC, agar dilution, HTM medium; format: cell-based, Haemophilus influenzae
Excerpt: as §1, with “biological” for “antibacterial”, “of compounds of” for “of”, “present invention against Haemophilus influenzae” for “compounds”, “agar dilution method using HTM medium” for “microdilution technique”

H. influenzae 1 = experiment: MIC, agar dilution, HTM medium; format: cell-based, Haemophilus influenzae
Excerpt: as §1, with “biological” for “antibacterial”, “of compounds of” for “of”, “present invention against Haemophilus influenzae” for “compounds”, “agar dilution method using HTM medium” for “microdilution technique”

H. influenzae H28 HEL = experiment: MIC, agar dilution, HTM medium; format: cell-based, Haemophilus influenzae
Excerpt: as §1, with “biological” for “antibacterial”, “of compounds of” for “of”, “present invention against Haemophilus influenzae” for “compounds”, “agar dilution method using HTM medium” for “microdilution technique”

H. influenzae 23145 = experiment: MIC, agar dilution, HTM medium; format: cell-based, Haemophilus influenzae
Excerpt: as §1, with “biological” for “antibacterial”, “of compounds of” for “of”, “present invention against Haemophilus influenzae” for “compounds”, “agar dilution method using HTM medium” for “microdilution technique”

H. influenzae B 1501 = experiment: MIC, agar dilution, HTM medium; format: cell-based, Haemophilus influenzae
Excerpt: as §1, with “biological” for “antibacterial”, “of compounds of” for “of”, “present invention against Haemophilus influenzae” for “compounds”, “agar dilution method using HTM medium” for “microdilution technique”

H. influenzae QK 50 = experiment: MIC, agar dilution, HTM medium; format: cell-based, Haemophilus influenzae
Excerpt: as §1, with “biological” for “antibacterial”, “of compounds of” for “of”, “present invention against Haemophilus influenzae” for “compounds”, “agar dilution method using HTM medium” for “microdilution technique”

H. influenzae 11 = experiment: MIC, agar dilution, HTM medium; format: cell-based, Haemophilus influenzae
Excerpt: as §1, with “biological” for “antibacterial”, “of compounds of” for “of”, “present invention against Haemophilus influenzae” for “compounds”, “agar dilution method using HTM medium” for “microdilution technique”

H. influenzae Christy = experiment: MIC, agar dilution, HTM medium; format: cell-based, Haemophilus influenzae
Excerpt: as §1, with “biological” for “antibacterial”, “of compounds of” for “of”, “present invention against Haemophilus influenzae” for “compounds”, “agar dilution method using HTM medium” for “microdilution technique”

H. influenzae 12214 = experiment: MIC, agar dilution, HTM medium; format: cell-based, Haemophilus influenzae
Excerpt: as §1, with “biological” for “antibacterial”, “of compounds of” for “of”, “present invention against Haemophilus influenzae” for “compounds”, “agar dilution method using HTM medium” for “microdilution technique”

H. influenzae Rd KW20 = experiment: MIC, agar dilution, HTM medium; format: cell-based, Haemophilus influenzae
Excerpt: as §1, with “biological” for “antibacterial”, “of compounds of” for “of”, “present invention against Haemophilus influenzae” for “compounds”, “agar dilution method using HTM medium” for “microdilution technique”

H. influenzae H36 ODL = experiment: MIC, agar dilution, HTM medium; format: cell-based, Haemophilus influenzae
Excerpt: as §1, with “biological” for “antibacterial”, “of compounds of” for “of”, “present invention against Haemophilus influenzae” for “compounds”, “agar dilution method using HTM medium” for “microdilution technique”

H. influenzae 4139 = experiment: MIC, agar dilution, HTM medium; format: cell-based, Haemophilus influenzae
Excerpt: as §1, with “biological” for “antibacterial”, “of compounds of” for “of”, “present invention against Haemophilus influenzae” for “compounds”, “agar dilution method using HTM medium” for “microdilution technique”

H. influenzae 23369 = experiment: MIC, agar dilution, HTM medium; format: cell-based, Haemophilus influenzae
Excerpt: as §1, with “biological” for “antibacterial”, “of compounds of” for “of”, “present invention against Haemophilus influenzae” for “compounds”, “agar dilution method using HTM medium” for “microdilution technique”

H. influenzae 3640 = experiment: MIC, agar dilution, HTM medium; format: cell-based, Haemophilus influenzae
Excerpt: as §1, with “biological” for “antibacterial”, “of compounds of” for “of”, “present invention against Haemophilus influenzae” for “compounds”, “agar dilution method using HTM medium” for “microdilution technique”

H. influenzae H20 HDL = experiment: MIC, agar dilution, HTM medium; format: cell-based, Haemophilus influenzae
Excerpt: as §1, with “biological” for “antibacterial”, “of compounds of” for “of”, “present invention against Haemophilus influenzae” for “compounds”, “agar dilution method using HTM medium” for “microdilution technique”

[2] = Streptococcus pneumoniae, read-out: minimum inhibitory concentration (MIC)
[3] = Staphylococcus aureus, read-out: minimum inhibitory concentration (MIC)
[4] = Haemophilus influenzae, read-out: MIC

MIC (St. pneumoniae SL199T; [2]): 0.25 µg/mL (≈ 0.311 µM) | MIC (St. pneumoniae 1/4; [2]): 0.25 µg/mL (≈ 0.311 µM) | MIC (St. pneumoniae 1/1; [2]): ≤ 0.12 µg/mL | MIC (St. pneumoniae 12288; [2]): 0.25 µg/mL (≈ 0.311 µM) | MIC (E. coli ATCC25922; Escherichia coli, read-out: minimum inhibitory concentration (MIC)): 8 µg/mL (≈ 9.94 µM) | minimum inhibitory concentration (MIC) [1]: >16 µg/mL | MIC (S. aureus 1086; [3]): ≤ 0.12 µg/mL | MIC (S. aureus ATCC29213; [3]): ≤ 0.12 µg/mL | MIC (S. aureus 745; [3]): > 16 µg/mL | MIC (H. influenzae QK 12/87; Haemophilus influenzae, QK12/87, read-out: MIC): 0.5 µg/mL (≈ 0.621 µM) | MIC (H. influenzae 3201; [4]): 4 µg/mL (≈ 4.97 µM) | MIC (H. influenzae ATCC 9334; Haemophilus influenzae, ATCC9334, read-out: MIC): 4 µg/mL (≈ 4.97 µM) | MIC (H. influenzae H13 LAH; Haemophilus influenzae, H13LAH, read-out: MIC): 2 µg/mL (≈ 2.48 µM) | MIC (H. influenzae ATCC 49247; Haemophilus influenzae, ATCC49247, read-out: MIC): 1 µg/mL (≈ 1.24 µM) | MIC (H. influenzae 3457; [4]): 0.25 µg/mL (≈ 0.311 µM) | MIC (H. influenzae 2947; [4]): 2 µg/mL (≈ 2.48 µM) | MIC (H. influenzae 1; [4]): 1 µg/mL (≈ 1.24 µM) | MIC (H. influenzae H28 HEL; Haemophilus influenzae, H28HEL, read-out: MIC): 2 µg/mL (≈ 2.48 µM) | MIC (H. influenzae 23145; [4]): 4 µg/mL (≈ 4.97 µM) | MIC (H. influenzae B 1501; Haemophilus influenzae, B1501, read-out: MIC): 1 µg/mL (≈ 1.24 µM) | MIC (H. influenzae QK 50; Haemophilus influenzae, QK50, read-out: MIC): 2 µg/mL (≈ 2.48 µM) | MIC (H. influenzae 11; [4]): 4 µg/mL (≈ 4.97 µM) | MIC (H. influenzae Christy; [4]): 2 µg/mL (≈ 2.48 µM) | MIC (H. influenzae 12214; [4]): 2 µg/mL (≈ 2.48 µM) | MIC (H. influenzae Rd KW20; Haemophilus influenzae, RDKW20, read-out: MIC): 4 µg/mL (≈ 4.97 µM) | MIC (H. influenzae H36 ODL; Haemophilus influenzae, H36ODL, read-out: MIC): 2 µg/mL (≈ 2.48 µM) | MIC (H. influenzae 4139; [4]): 2 µg/mL (≈ 2.48 µM) | MIC (H. influenzae 23369; [4]): 4 µg/mL (≈ 4.97 µM) | MIC (H. influenzae 3640; [4]): 2 µg/mL (≈ 2.48 µM) | MIC (H. influenzae H20 HDL; Haemophilus influenzae, H20HDL, read-out: MIC): 1 µg/mL (≈ 1.24 µM)
SMILES: CC[C@H]1OC(=O)[C@H](C)C(=O)[C@H](C)[C@@H](O[C@@H]2O[C@H](C)C[C@H](N(C)C)[C@H]2O)[C@](C)(OC)C[C@@H](C)C(=O)[C@H](C)[C@H]2[C@H](SCCn3cnc4c(N)ncnc43)C(=O)O[C@@]21C [Compound I-14, (3S,3aR,4R,6R,8R,9R,10R,12R,15R,15aS)-3-[[2-[6-Amino-9H-purine-9-yl]ethyl]thio]-15-ethyloctahydro-8-methoxy-4,6,8,10,12,15a-hexamethyl-9-[[3,4,6-trideoxy-3-(dimethylamino)-β-D-xylo-hexopyranosyl]oxy]-2H-furo[2,3-c]oxacyclotetradecin-2,5,11,13(3H,6H,12H)-tetrone]

SMILES: CC[C@H]1OC(=O)[C@H](C)C(=O)[C@H](C)[C@@H](O[C@@H]2O[C@H](C)C[C@H](N(C)C)[C@H]2O)[C@](C)(OC)C[C@@H](C)C(=O)[C@H](C)[C@H]2[C@H](SCCn3ccc(=O)[nH]c3=O)C(=O)O[C@@]21C [Compound I-6, (3S,3aR,4R,6R,8R,9R,10R,12R,15R,15aS)-15-Ethyloctahydro-8-methoxy-4,6,8,10,12,15a-hexamethyl-3-[[2-[2,4-1H,3H-pyriminedione-1-yl]ethyl]-thio]-9-[[3,4,6-trideoxy-3-(dimethylamino)-β-D-xylo-hexopyranosyl]oxy]-2H-furo[2,3-c]oxacyclotetradecin-2,5,11,13(3H,6H,12H)-tetrone]
minimum inhibitory concentration (MIC) (St. pneumoniae SL199T): 1 µg/mL (≈ 1.28 µM) | minimum inhibitory concentration (MIC) (St. pneumoniae 1/4): <=0.12 μg/ml | minimum inhibitory concentration (MIC) (St. pneumoniae 1/1): <=0.12 μg/ml | minimum inhibitory concentration (MIC) (St. pneumoniae 12288): 4 µg/mL (≈ 5.12 µM) | minimum inhibitory concentration (MIC) (E. coli ATCC25922): >16 µg/mL | minimum inhibitory concentration (MIC) [1]: >16 µg/mL | minimum inhibitory concentration (MIC) (S. aureus 1086): <=0.12 μg/ml | minimum inhibitory concentration (MIC) (S. aureus ATCC29213): <=0.12 μg/ml | minimum inhibitory concentration (MIC) (S. aureus 745): >16 µg/mL | MIC (H. influenzae QK 12/87): 1 µg/mL (≈ 1.28 µM) | MIC (H. influenzae 3201): 4 µg/mL (≈ 5.12 µM) | MIC (H. influenzae ATCC 9334): 2 µg/mL (≈ 2.56 µM) | MIC (H. influenzae H13 LAH): 2 µg/mL (≈ 2.56 µM) | MIC (H. influenzae ATCC 49247): 2 µg/mL (≈ 2.56 µM) | MIC (H. influenzae 3457): 0.25 µg/mL (≈ 0.32 µM) | MIC (H. influenzae 2947): 4 µg/mL (≈ 5.12 µM) | MIC (H. influenzae 1): 4 µg/mL (≈ 5.12 µM) | MIC (H. influenzae H28 HEL): 2 µg/mL (≈ 2.56 µM) | MIC (H. influenzae 23145): 4 µg/mL (≈ 5.12 µM) | MIC (H. influenzae B 1501): 2 µg/mL (≈ 2.56 µM) | MIC (H. influenzae QK 50): 2 µg/mL (≈ 2.56 µM) | MIC (H. influenzae 11): 4 µg/mL (≈ 5.12 µM) | MIC (H. influenzae Christy): 2 µg/mL (≈ 2.56 µM) | MIC (H. influenzae 12214): 4 µg/mL (≈ 5.12 µM) | MIC (H. influenzae Rd KW20): 2 µg/mL (≈ 2.56 µM) | MIC (H. influenzae H36 ODL): 4 µg/mL (≈ 5.12 µM) | MIC (H. influenzae 4139): 2 µg/mL (≈ 2.56 µM) | MIC (H. influenzae 23369): 4 µg/mL (≈ 5.12 µM) | MIC (H. influenzae 3640): 2 µg/mL (≈ 2.56 µM) | MIC (H. influenzae H20 HDL): 1 µg/mL (≈ 1.28 µM)

From patent US6740642B2, “Macrolides with antibacterial activity” (BAsilea Parmaceutica AG, priority 2000, dated 2004)
